The record followed here is patent publication US20250353891A1 (MEDIMMUNE LIMITED, priority 2022, published 2025).

Read-outs that look alike come from different tables or passages of the source. Starred links: 1 amine or outer side, 2 acyl side, 3 side chain; linkers in the order of their positions; H or OH if unused. Non-standard residues stand in square brackets, D forms with d. Residues, ends and D or L forms follow the SMILES beside them. Groups on a side chain read outwards from the residue. *: point of attachment. C20 diacid = O=C(O)CCCCCCCCCCCCCCCCCCC(=O)*; C18 diacid = O=C(O)CCCCCCCCCCCCCCCCC(=O)*; γGlu = O=C(O)[C@H](CCC(=O)[*:2])N[*:1]; αMeF = C[C@](N)(Cc1ccccc1)C(=O)O; AEEA = NCCOCCOCC(=O)O; Aib = CC(C)(N)C(=O)O A value given as a limit tells only on which side of the number the result lay.

Assay [1] deals with human glucagon receptor (hGCGR) (Homo sapiens, UniProt P47871). Put plainly: cAMP production (HTRF) in CHO cells expressing hGCGR. It is filed as cell-based. Also on record: expressed in transfected cells. The following applies: geometric mean, read-out: hGluc-R EC50. The gist of the method: (§1)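 Read-out: HTRF cAMP (anti-cAMP cryptate donor, cAMP-d2 acceptor in conjugate/lysis buffer), converted to % Delta F and fitted by 4-parameter logistic for EC50. Cell densities were 1×10^5 cells/mL (hGLP-1R) or 2×10^5 cells/mL (hGCGR). Stimulation lasted 30 min at room temperature.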
Background: Changes in cAMP serve as a functional read-out for many G protein-coupled receptors.

Assay [2] concerns the target human GLP-1 receptor (hGLP-1R) (Homo sapiens, UniProt P43220). As to the kind of experiment: cAMP production (HTRF) in CHO cells expressing hGLP-1R. The format is cell-based. The settings on record: for EC50: geometric mean, read-out: hGLP-1R EC50; for % Relative Potency Ratio: % GLP-1R activity relative to GLP-1 / % GlucR activity relative to glucagon. The arrangement: expressed in transfected cells. In outline:
as §1

[3] abbreviates: Table 6, peptides modified at position 17, cAMP in CHO hGCGR cells.
Setting [4] is: Table 6, peptides modified at position 17, cAMP in CHO hGLP-1R cells.

Sequence of human GLP-1 receptor (hGLP-1R) (P43220 24-463): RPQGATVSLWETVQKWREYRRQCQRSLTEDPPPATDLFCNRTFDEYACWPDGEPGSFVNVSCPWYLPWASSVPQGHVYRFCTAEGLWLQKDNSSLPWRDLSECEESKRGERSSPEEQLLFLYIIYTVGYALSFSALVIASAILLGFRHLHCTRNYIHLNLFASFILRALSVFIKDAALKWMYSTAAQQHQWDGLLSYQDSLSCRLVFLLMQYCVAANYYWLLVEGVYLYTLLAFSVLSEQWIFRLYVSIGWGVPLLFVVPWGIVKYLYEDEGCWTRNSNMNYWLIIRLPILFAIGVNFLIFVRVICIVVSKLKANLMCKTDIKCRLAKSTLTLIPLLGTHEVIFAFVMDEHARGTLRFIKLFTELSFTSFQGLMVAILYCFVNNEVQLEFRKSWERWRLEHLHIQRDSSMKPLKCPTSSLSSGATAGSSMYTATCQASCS
Sequence of human glucagon receptor (hGCGR) (P47871 26-477): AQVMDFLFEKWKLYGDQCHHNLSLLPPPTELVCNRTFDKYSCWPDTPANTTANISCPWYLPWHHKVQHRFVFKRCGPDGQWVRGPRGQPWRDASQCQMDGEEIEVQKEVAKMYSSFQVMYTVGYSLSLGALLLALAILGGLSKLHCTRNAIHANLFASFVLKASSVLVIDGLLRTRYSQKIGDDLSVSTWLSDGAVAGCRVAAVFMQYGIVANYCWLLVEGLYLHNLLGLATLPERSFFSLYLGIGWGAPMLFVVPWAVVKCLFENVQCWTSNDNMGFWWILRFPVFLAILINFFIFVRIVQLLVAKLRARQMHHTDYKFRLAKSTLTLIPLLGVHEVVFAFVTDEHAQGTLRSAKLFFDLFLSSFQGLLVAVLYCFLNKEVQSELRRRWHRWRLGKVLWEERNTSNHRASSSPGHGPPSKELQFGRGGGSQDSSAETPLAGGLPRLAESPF

A word on the EC50: it is the concentration at which the effect is half-maximal. For `CC(C)C[C@H](NC(=O)[C@H](Cc1c[nH]c2ccccc12)NC(=O)[C@H](C)NC(=O)[C@@H](NC(=O)[C@H](Cc1ccccc1)NC(=O)[C@H](CC(=O)O)NC(=O)[C@H](CCC(N)=O)NC(=O)[C@H](C)NC(=O)[C@H](CCCNC(=N)N)NC(=O)[C@H](CCCCNC(=O)COCCOCCNC(=O)COCCOCCNC(=O)CC[C@H](NC(=O)CCCCCCCCCCCCCCCCCCC(=O)O)C(=O)O)NC(=O)[C@@H](NC(=O)[C@H](CC(=O)O)NC(=O)[C@H](CC(C)C)NC(=O)[C@](C)(Cc1ccccc1)NC(=O)[C@H](CCCCN)NC(=O)[C@H](CO)NC(=O)[C@@H](NC(=O)[C@H](CC(=O)O)NC(=O)[C@H](CO)NC(=O)[C@@H](NC(=O)[C@H](Cc1ccccc1)NC(=O)[C@@H](NC(=O)CNC(=O)[C@H](CCC(N)=O)NC(=O)C(C)(C)NC(=O)[C@@H](N)Cc1c[nH]cn1)[C@@H](C)O)[C@@H](C)O)C(C)C)[C@@H](C)O)C(C)C)C(=O)N[C@@H](CCC(=O)O)C(=O)N[C@@H](C)C(=O)NCC(=O)NCC(=O)O` [Peptide 412] (H-H[Aib]QGTFTSDVSK[αMeF]LDTK([AEEA-AEEA-γGlu-C20 diacid])RAQDFVAWLEAGG-OH; N-terminus assumed), the 50% effective concentration (EC50) in assay [1] (setting [3]) turned out to be 0.397 nM; in assay [2] (setting [4]) it was 0.186 nM. In assay [2] (Table 6), the “% Relative Potency Ratio” value stood at 4.2.

As to `CC(C)C[C@H](NC(=O)[C@H](Cc1c[nH]c2ccccc12)NC(=O)[C@H](C)NC(=O)[C@@H](NC(=O)[C@H](Cc1ccccc1)NC(=O)[C@H](CC(=O)O)NC(=O)[C@H](CCCCNC(=O)COCCOCCNC(=O)COCCOCCNC(=O)CC[C@H](NC(=O)CCCCCCCCCCCCCCCCCCC(=O)O)C(=O)O)NC(=O)[C@H](C)NC(=O)[C@H](CCCNC(=N)N)NC(=O)[C@H](CCC(=O)O)NC(=O)[C@H](CO)NC(=O)[C@H](CC(=O)O)NC(=O)[C@H](CC(C)C)NC(=O)[C@](C)(Cc1ccccc1)NC(=O)[C@H](CCCCN)NC(=O)[C@H](CO)NC(=O)[C@@H](NC(=O)[C@H](CC(=O)O)NC(=O)[C@H](CO)NC(=O)[C@@H](NC(=O)[C@H](Cc1ccccc1)NC(=O)[C@@H](NC(=O)CNC(=O)[C@H](CCC(N)=O)NC(=O)C(C)(C)NC(=O)[C@@H](N)Cc1c[nH]cn1)[C@@H](C)O)[C@@H](C)O)C(C)C)C(C)C)C(=O)N[C@@H](CCC(=O)O)C(=O)N[C@@H](C)C(=O)NCC(=O)NCC(=O)O` [Peptide 523], the EC50 in assay [1] (Table 7, peptides modified at position 20, cAMP in CHO hGCGR cells) was above 24.7 nM; in assay [2] (Table 7, peptides modified at position 20, cAMP in CHO hGLP-1R cells) it was 0.615 nM.

Regarding `CC[C@H](C)[C@H](NC(=O)[C@H](Cc1c[nH]c2ccccc12)NC(=O)[C@H](CCCCNC(=O)COCCOCCNC(=O)COCCOCCNC(=O)CC[C@H](NC(=O)CCCCCCCCCCCCCCCCCCC(=O)O)C(=O)O)NC(=O)[C@@H](NC(=O)[C@H](Cc1ccccc1)NC(=O)[C@H](CC(=O)O)NC(=O)[C@H](CCC(N)=O)NC(=O)[C@H](C)NC(=O)[C@H](C)NC(=O)[C@H](CCCNC(=N)N)NC(=O)[C@H](CO)NC(=O)[C@H](CC(=O)O)NC(=O)[C@H](CC(C)C)NC(=O)[C@](C)(Cc1ccccc1)NC(=O)[C@H](CCCCN)NC(=O)[C@H](CO)NC(=O)[C@@H](NC(=O)[C@H](CC(=O)O)NC(=O)[C@H](CO)NC(=O)[C@@H](NC(=O)[C@](C)(Cc1ccccc1)NC(=O)[C@H](CO)NC(=O)CNC(=O)[C@@H](NC(=O)C(C)(C)NC(=O)[C@@H](N)Cc1c[nH]cn1)[C@@H](C)CC)[C@@H](C)O)C(C)C)C(C)C)C(=O)N[C@@H](C)C(=O)N[C@@H](CC(N)=O)C(=O)N[C@H](C(N)=O)[C@@H](C)O` [Peptide 360] (H-H[Aib]IGS[αMeF]TSDVSK[αMeF]LDSRAAQDFVK([AEEA-AEEA-γGlu-C20 diacid])WIANT-NH2; N-terminus assumed), the EC50 is 5.64 nM in assay [1] (cAMP, CHO cells, 0.1% BSA) and 0.108 nM in assay [2] (cAMP, CHO cells, 0.1% BSA). Besides, the “% Relative Potency Ratio” value in assay [2] was found to be 103.5.

In the case of `CC[C@H](C)[C@H](NC(=O)[C@H](CO)NC(=O)[C@H](CCC(=O)O)NC(=O)[C@@H](NC(=O)[C@](C)(Cc1ccccc1)NC(=O)[C@H](CC(=O)O)NC(=O)[C@H](CCC(N)=O)NC(=O)[C@H](C)NC(=O)[C@H](C)NC(=O)[C@H](CCCCNC(=O)COCCOCCNC(=O)COCCOCCNC(=O)CC[C@H](NC(=O)CCCCCCCCCCCCCCCCC(=O)O)C(=O)O)NC(=O)[C@H](CO)NC(=O)[C@H](CC(=O)O)NC(=O)[C@H](CC(C)C)NC(=O)[C@](C)(Cc1ccccc1)NC(=O)[C@H](CCCCN)NC(=O)[C@H](CO)NC(=O)[C@@H](NC(=O)[C@H](CC(=O)O)NC(=O)[C@H](CO)NC(=O)[C@@H](NC(=O)[C@](C)(Cc1ccccc1)NC(=O)[C@H](CO)NC(=O)CNC(=O)[C@H](Cc1c[nH]cn1)NC(=O)C(C)(C)NC(=O)[C@@H](N)Cc1c[nH]cn1)[C@@H](C)O)C(C)C)C(C)C)C(=O)N[C@@H](C)C(=O)N[C@@H](CC(N)=O)C(=O)N[C@H](C(N)=O)[C@@H](C)O` [Peptide 23] (H-H[Aib]HGS[αMeF]TSDVSK[αMeF]LDSK([AEEA-AEEA-γGlu-C18 diacid])AAQD[αMeF]VESIANT-NH2; N-terminus assumed), the EC50 came to 0.321 nM in assay [1] (setting [3]) and 0.266 nM in assay [2] (setting [4]). In addition, in assay [2] (Table 6), the “% Relative Potency Ratio” value is on record as 2.4.

Consider `CC(C)C[C@H](NC(=O)[C@H](CC(C)C)NC(=O)[C@H](Cc1c[nH]c2ccccc12)NC(=O)[C@H](CCCNC(=N)N)NC(=O)[C@@H](NC(=O)[C@H](Cc1ccccc1)NC(=O)[C@H](CC(=O)O)NC(=O)[C@H](CCC(N)=O)NC(=O)[C@H](C)NC(=O)[C@H](CCCNC(=N)N)NC(=O)[C@H](CCCCNC(=O)COCCOCCNC(=O)COCCOCCNC(=O)CC[C@H](NC(=O)CCCCCCCCCCCCCCCCCCC(=O)O)C(=O)O)NC(=O)[C@H](CO)NC(=O)[C@H](CCC(=O)O)NC(=O)[C@H](CC(C)C)NC(=O)[C@](C)(Cc1ccccc1)NC(=O)[C@H](CCCCN)NC(=O)[C@H](CO)NC(=O)[C@@H](NC(=O)[C@H](CC(=O)O)NC(=O)[C@H](CO)NC(=O)[C@@H](NC(=O)[C@H](Cc1ccccc1)NC(=O)[C@@H](NC(=O)CNC(=O)[C@H](CCC(N)=O)NC(=O)C(C)(C)NC(=O)[C@@H](N)Cc1c[nH]cn1)[C@@H](C)O)[C@@H](C)O)C(C)C)C(C)C)C(=O)N[C@@H](C)C(=O)NC(C)(C)C(=O)NCC(N)=O` [Peptide 516] (H-H[Aib]QGTFTSDVSK[αMeF]LESK([AEEA-AEEA-γGlu-C20 diacid])RAQDFVRWLLA[Aib]G-NH2; N-terminus assumed), for which the figures for the EC50 in assay [1] (setting [3]) and in assay [2] (setting [4]) were 0.785 nM and 0.137 nM, respectively. Besides, the “% Relative Potency Ratio” value in assay [2] (Table 6) is recorded as 11.3.

As to `CC(C)C[C@H](NC(=O)[C@H](Cc1c[nH]c2ccccc12)NC(=O)[C@H](CCCNC(=N)N)NC(=O)[C@@H](NC(=O)[C@H](Cc1ccccc1)NC(=O)[C@H](CC(=O)O)NC(=O)[C@H](CCC(N)=O)NC(=O)[C@H](C)NC(=O)[C@H](CCCNC(=N)N)NC(=O)[C@H](CCCCNC(=O)CC[C@H](NC(=O)CC[C@H](NC(=O)COCCOCCNC(=O)COCCOCCNC(=O)CC[C@H](NC(=O)CC[C@H](NC(=O)CCCCCCCCCCCCCCCCCCC(=O)O)C(=O)O)C(=O)O)C(=O)O)C(=O)O)NC(=O)[C@H](CO)NC(=O)[C@H](CC(=O)O)NC(=O)[C@H](CC(C)C)NC(=O)[C@](C)(Cc1ccccc1)NC(=O)[C@H](CCCCN)NC(=O)[C@H](CO)NC(=O)[C@@H](NC(=O)[C@H](CC(=O)O)NC(=O)[C@H](CO)NC(=O)[C@@H](NC(=O)[C@H](Cc1ccccc1)NC(=O)[C@@H](NC(=O)CNC(=O)[C@H](CCC(N)=O)NC(=O)C(C)(C)NC(=O)[C@@H](N)Cc1c[nH]cn1)[C@@H](C)O)[C@@H](C)O)C(C)C)C(C)C)C(=O)N[C@@H](CC(C)C)C(=O)N[C@@H](CCC(=O)O)C(=O)NC(C)(C)C(=O)NCC(=O)O` [Peptide 139], the 50% effective concentration (EC50) in assay [1] (setting [3]) was 0.984 nM; in assay [2] (setting [4]) it was 0.63 nM. Besides, the “% Relative Potency Ratio” value in assay [2] (Table 6) amounted to 3.1.

Take `CC[C@H](C)[C@H](NC(=O)[C@H](Cc1c[nH]c2ccccc12)NC(=O)[C@H](CCCCNC(=O)COCCOCCNC(=O)COCCOCCNC(=O)CC[C@H](NC(=O)CCCCCCCCCCCCCCCCC(=O)O)C(=O)O)NC(=O)[C@@H](NC(=O)[C@H](Cc1ccccc1)NC(=O)[C@H](CC(=O)O)NC(=O)[C@H](CCC(N)=O)NC(=O)[C@H](C)NC(=O)[C@H](C)NC(=O)[C@H](CCCNC(=N)N)NC(=O)[C@H](CO)NC(=O)[C@H](CC(=O)O)NC(=O)[C@H](CC(C)C)NC(=O)[C@](C)(Cc1ccccc1)NC(=O)[C@H](CCCCN)NC(=O)[C@H](CO)NC(=O)[C@@H](NC(=O)[C@H](CC(=O)O)NC(=O)[C@H](CO)NC(=O)[C@@H](NC(=O)[C@](C)(Cc1ccccc1)NC(=O)[C@H](CO)NC(=O)CNC(=O)[C@@H](NC(=O)C(C)(C)NC(=O)[C@@H](N)Cc1c[nH]cn1)[C@@H](C)CC)[C@@H](C)O)C(C)C)C(C)C)C(=O)N[C@@H](C)C(=O)N[C@@H](CC(N)=O)C(=O)N[C@H](C(N)=O)[C@@H](C)O` [Peptide 359] (H-H[Aib]IGS[αMeF]TSDVSK[αMeF]LDSRAAQDFVK([AEEA-AEEA-γGlu-C18 diacid])WIANT-NH2): the EC50 in assay [1] (cAMP, CHO cells, 0.1% BSA) stood at 5.05 nM; in assay [2] (cAMP, CHO cells, 0.1% BSA), 0.0461 nM. The “% Relative Potency Ratio” value in assay [2] was 216.6.
